Laboratory results from patent US20240197761A1, “FUCOSYLATION AND IMMUNE MODULATION IN CANCER” (H. LEE MOFFITT CANCER CENTER AND RESEARCH INSTITUTE, INC., priority 2021, published 2024).

Legend:
[1] = tested on: PD-L1 on WM793, SW1 and SM1 cells; test: Cell surface PD-L1 (flow cytometry); assay type: cell-based; details: human or mouse melanoma cells, 250 μM
Excerpt: FIGS. 22A-221 show Schematic of L-PLA staining and verification of fucosylated HLA-DRB1 staining, which is weakly associated with tumor peripheral CD4+T cells; and the effects of L-fucose on tumor PD-L1 expression (a) Schematic of lectin-mediated proximity ligation analysis (L-PLA) using fucosylated HLA-DRB1 (fuco-HLA-DRB1) as an example. We stained for (i) HLA-DRB1 using […]-HLA-DRB1 followed by (+) oligo-conjugated PLA secondary and (ii) fucosylated glycan using biotinylated (“B”) AAL lectin followed by D-biotin followed by (−) oligo-conjugated PLA secondary. Ligated PLA oligos were subjected to rolling circle amplification PCR (RCA PCR), giving rise to fluorescent punctae. […] Single melanoma marker, AAL-FITC, and HLA-DRB1 channels are shown in white for clearer visualization. […] (d) FFPE melanoma tissues were subjected to L-PLA HLA-DRB1 staining ±500 mM L-fucose wash and subsequent staining with melanoma marker (MART1+SI10 cocktail), and DAPI. Single melanoma marker and fuco-HLA-DRB1 channels are shown in white for clear visualization. […]
HLA-DRB1, and PD-L1: Indicated cells were treated for 72 h with DMSO, 250 μM fucosyltransferase inhibitor (FUTi) (Millipore Sigma (St. Louis, MO)), or 250 μM of L-fucose (Biosynth (Oak Terrace, IL)). […] Samples were analyzed using FlowJo analysis software (BD Biosciences (San Jose, CA)). […]

SW1 tumors = test: NSG melanoma model: SW1 tumor growth in immunodeficient mice; assay type: in vivo
Excerpt: All animals were housed at the Vincent A. Stabile Research building animal facility at H. Lee Moffitt Cancer Center & Research Institute, which is fully accredited by the Association for Assessment and Accreditation of Laboratory Animal Care International (AAALAC, #434), and are managed in accordance with the Guide for the Care and Use of Laboratory Animals (“The Guide”), the Animal Welfare Regulations Title 9 Code of Federal Regulations Subchapter A, “Animal Welfare”, Parts 1-3 (AWR), the Public Health Service Policy on Humane Care and Use of Laboratory Animals (PHS Policy), and by the USF Institutional Animal Care and Use Committee's Principles and Procedures of Animal Care and Use (IACUC Principles). The experiments and protocols detailed in this study received institutional approval by the Moffitt IACUC (RIS00001625). Four-to-six-week-old female C3H/HeN and male C57BL6 mice were purchased from Charles Rivers Laboratories for the indicated experiments. Four-to-six-week-old male NSG mice from the Lau laboratory breeding colony were used for the indicated experiments. Power calculations were used to determine mouse cohort sizes to detect significant changes in tumor sizes. […] Mouse tumor volumes were measured using length, width and depth divided by 2. […]

C[C@H](O)[C@@H](O)[C@@H](O)[C@H](O)C=O [L-fucose]
cell surface levels of PD-L1 [1]: does not alter
SW1 tumor growth (SW1 tumors): did not reduce
